Reference: patent publication US20240158446A1, “CYCLIC COMPOUND HAVING SELECTIVE INHIBITORY ACTION ON KRAS OVER HRAS AND NRAS” (CHUGAI SEIYAKU KABUSHIKI KAISHA, priority 2021, published 2024)
Where two headings read alike, the source gives them in different places. Where a SMILES comes first, the peptide text is derived from it. Bridges are numbered along the chain shown (N, C = ends). [ ]: non-standard residue; d: D form. The star is where a group is joined. hPhe(3-Cl-4-CF3) = N[C@@H](CCc1ccc(C(F)(F)F)c(Cl)c1)C(=O)O; NPrPhe(4-CF3) = CCCN[C@@H](Cc1ccc(C(F)(F)F)cc1)C(=O)O; NMeGly(cPent) = CN[C@H](C(=O)O)C1CCCC1; NMeD = CN[C@@H](CC(=O)O)C(=O)O; NMeL = CN[C@@H](CC(C)C)C(=O)O; Morpholide = C1CN(*)CCO1; Ac5c = NC1(C(=O)O)CCCC1; Abu = CC[C@H](N)C(=O)O; NEtG = CCNCC(=O)O; Sar = CNCC(=O)O

Columns and labels:
[1] = target: GDP-bound KRAS wild-type protein (Homo sapiens, UniProt P01116); assay: Binding to KRAS by surface plasmon resonance (SPR), Single Cycle Kinetics; conditions: GDP-bound KRAS wild-type protein, read-out: KRAS KD
GDP-bound KRAS wild-type protein, sequence (P01116 whole entry): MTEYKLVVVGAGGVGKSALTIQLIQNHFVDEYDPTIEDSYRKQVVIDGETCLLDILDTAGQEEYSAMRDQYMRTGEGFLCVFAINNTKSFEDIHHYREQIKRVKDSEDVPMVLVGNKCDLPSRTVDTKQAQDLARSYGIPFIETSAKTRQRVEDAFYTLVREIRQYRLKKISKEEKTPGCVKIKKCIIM

[2] = target: GDP-bound NRAS wild-type protein (Homo sapiens, UniProt P01111); assay: Binding to NRAS by surface plasmon resonance (SPR), Single Cycle Kinetics; conditions: for NRAS/KRAS (ratio of KD value for NRAS to KD value for KRAS): SPR, GDP-bound NRAS wild-type protein vs GDP-bound KRAS wild-type protein; for NRAS/KRAS (ratio of KD value with respect to GDP-bound NRAS wild-type protein to KD value with respect to KRAS): SPR KD ratio NRAS/KRAS, class symbols
GDP-bound NRAS wild-type protein, sequence (P01111 whole entry): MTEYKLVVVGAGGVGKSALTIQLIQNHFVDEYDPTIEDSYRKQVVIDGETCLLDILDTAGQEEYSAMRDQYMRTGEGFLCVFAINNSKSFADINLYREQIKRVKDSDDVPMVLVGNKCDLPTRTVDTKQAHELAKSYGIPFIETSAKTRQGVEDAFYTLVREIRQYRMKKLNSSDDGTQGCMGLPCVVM

[3] = target: GDP-bound HRAS wild-type protein (Homo sapiens, UniProt P01112); assay: Binding to HRAS by surface plasmon resonance (SPR), Single Cycle Kinetics; conditions: for HRAS/KRAS (ratio of KD value for HRAS to KD value for KRAS): SPR, GDP-bound HRAS wild-type protein vs GDP-bound KRAS wild-type protein; for HRAS/KRAS (ratio of KD value with respect to GDP-bound HRAS wild-type protein to KD value with respect to KRAS): SPR KD ratio HRAS/KRAS, class symbols
GDP-bound HRAS wild-type protein, sequence (P01112 whole entry): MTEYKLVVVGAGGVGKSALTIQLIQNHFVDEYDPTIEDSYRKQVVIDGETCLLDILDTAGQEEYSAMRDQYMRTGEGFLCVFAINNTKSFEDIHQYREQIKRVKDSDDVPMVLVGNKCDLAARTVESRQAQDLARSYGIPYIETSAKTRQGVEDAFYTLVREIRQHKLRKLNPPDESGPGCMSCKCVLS

[4] = system: human lung cancer strain NCI-H441;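 also: cell proliferation inhibition after four days measured by CellTiter-Glo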
[5] = SPR Single Cycle Kinetics, 1:1 binding model
[6] = SPR, Single Cycle Kinetics, 1:1 binding model

Row | SMILES | Kd [1, 5] [nM] | NRAS/KRAS (ratio of KD value for NRAS to KD value for KRAS) [2] | HRAS/KRAS (ratio of KD value for HRAS to KD value for KRAS) [3] | IC50 [4] [nM] | Kd ([1]; SPR, Single Cycle Kinetics) [nM] | Kd [1, 6] [nM] | NRAS/KRAS (ratio of KD value for NRAS to KD value for KRAS) ([2]; KD ratio class) | HRAS/KRAS (ratio of KD value for HRAS to KD value for KRAS) ([3]; KD ratio class) | NRAS/KRAS (ratio of KD value with respect to GDP-bound NRAS wild-type protein to KD value with respect to KRAS) [2] | HRAS/KRAS (ratio of KD value with respect to GDP-bound HRAS wild-type protein to KD value with respect to KRAS) [3]
1 | CCCN1C(=O)CN(C)C(=O)CN(CC)C(=O)[C@H](CC)NC(=O)[C@H](CC(C)C)N(C)C(=O)C[C@@H](C(=O)N2CCOCC2)N(C)C(=O)[C@H](C2CCCC2)N(C)C(=O)C2(CCCC2)NC(=O)[C@@H]2CCCN2C(=O)[C@H](CCc2ccc(C(F)(F)F)c(Cl)c2)NC(=O)CN(C)C(=O)[C@@H]1Cc1ccc(C(F)(F)F)cc1 [PP0290] ([NMeL][Abu][NEtG][Sar][NPrPhe(4-CF3)][Sar][hPhe(3-Cl-4-CF3)]P[Ac5c][NMeGly(cPent)][NMeD]-Morpholide; lactam N-11) | 4.8 | B (a compound having 3 or more and less than 10 is denoted as B) | C (A compound having a KD ratio of 0.1 or more and less than 3 is denoted as C) | 149 | – | – | – | – | – | –
2 | CCOC[C@H]1C(=O)N[C@@H]([C@@H](C)CC)C(=O)N(C)CC(=O)N(C)[C@H]2C/C=C\CCN(C2=O)[C@@H](CC2CCC(F)(F)CC2)C(=O)N(C)CC(=O)N[C@@H](CCc2cc(F)c(C(F)(F)F)c(F)c2)C(=O)N2C[C@@H](C)C[C@H]2C(=O)NC2(CC(C)(C)C2)C(=O)N(C)[C@@H](C(CC)CC)C(=O)N(C)[C@H](C(=O)N(C)C)CC(=O)N1C [PP2462] | – | A (a compound having 10 or more and less than 20 is denoted as A) | A (a compound having 10 or more and less than 20 is denoted as A) | 87.2 | 1.6 | – | – | – | – | –
3 | CCO[C@@H]1C[C@H]2C(=O)NC3(CCC3)C(=O)N(C)[C@@H](C3CCCC3)C(=O)N(C)[C@H](C(=O)N(C)C)CC(=O)N(C)[C@@H](Cc3ccccc3C#N)C(=O)N[C@@H]([C@@H](C)CC)C(=O)N(C)CC(=O)N(C)[C@H]3CCCCCN(C3=O)[C@@H](Cc3ccc(F)cc3)C(=O)N(C)CC(=O)N[C@@H](CCc3cc(F)c(C(F)(F)F)c(F)c3)C(=O)N2C1 [PP1155] | – | B (a compound having 3 or more and less than 10 is denoted as B) | B (a compound having 3 or more and less than 10 is denoted as B) | 73.1 | 0.15 | – | – | – | – | –
4 | CCCOC[C@H]1C(=O)N[C@@H]([C@@H](C)CC)C(=O)N(C)CC(=O)N(C)[C@H]2C/C=C\CCN(C2=O)[C@@H](CC2CCC(F)(F)CC2)C(=O)N(C)CC(=O)N[C@@H](CCc2ccc(C(F)(F)F)c(OC)c2)C(=O)N2C[C@@H](C)C[C@H]2C(=O)N(C)C2(CCC2)C(=O)N(C)[C@@H](C2CCCC2)C(=O)N(C)[C@H](C(=O)N(C)C)CC(=O)N1C [PP2377] | – | A (a compound having 10 or more and less than 20 is denoted as A) | A (a compound having 10 or more and less than 20 is denoted as A) | 5.7 | 0.32 | – | – | – | – | –
5 | CC[C@H](C)[C@@H]1NC(=O)[C@H](CC2CC2)N(C)C(=O)C[C@@H](C(=O)N2CCOCC2)N(C)C(=O)[C@H](C2CCCC2)N(C)C(=O)C2(CCCC2)NC(=O)[C@@H]2CCCN2C(=O)[C@H](CCc2ccc(C(F)(F)F)c(Cl)c2)NC(=O)CN(C)C(=O)[C@H](Cc2ccc(C(F)(F)F)cc2)N2C[C@H](C)CC[C@@H](C2=O)N(C)C(=O)CN(C)C1=O [PP1343] | – | – | – | 19.3 | – | 0.27 | A (a compound having 10 or more and less than 20 is denoted as A) | B (a compound having 3 or more and less than 10 is denoted as B) | – | –
6 | CC[C@H](C)[C@@H]1NC(=O)[C@H](CC)N(C)C(=O)C[C@@H](C(=O)N(C)C)N(C)C(=O)[C@H](C2CCCC2)N(C)C(=O)C2(CCC2)NC(=O)[C@@H]2C[C@H](C)CN2C(=O)[C@H](CCc2cc(F)c(C(F)(F)F)c(F)c2)NC(=O)CN(C)C(=O)[C@H](Cc2ccc(C(F)(F)F)cc2)N2CC/C=C\C[C@@H](C2=O)N(C)C(=O)CN(C)C1=O [PP1134, (2S,8S,12S,14S,20S,23S,27S,30S,36S,38Z)-20-cyclopentyl-8-[2-[3,5-difluoro-4-(trifluoromethyl)phenyl]ethyl]-27-ethyl-N,N,4,12,19,22,26,32,35-nonamethyl-30-[(1S)-1-methylpropyl]-3,6,9,15,18,21,25,28,31,34,42-undecaoxo-2-[[4-(trifluoromethyl)phenyl]methyl]spiro[1,4,7,10,16,19,22,26,29,32,35-undecazatricyclo[34.5.1.0^10,14]dotetracont-38-ene-17,1′-cyclobutane]-23-carboxamide] | – | A (a compound having 10 or more and less than 20 is denoted as A) | B (a compound having 3 or more and less than 10 is denoted as B) | 20 | 0.06 | – | – | – | – | –
7 | CCO[C@@H]1C[C@H]2C(=O)NC3(CCCC3)C(=O)N(C)[C@@H](C3CCCC3)C(=O)N(C)[C@H](C(=O)N(C)C)CC(=O)N(C)[C@@H](CC)C(=O)N[C@@H]([C@@H](C)CC)C(=O)N(C)CC(=O)N(C)[C@H]3CC[C@@H](C)CN(C3=O)[C@@H](Cc3ccc(C(F)(F)F)cc3)C(=O)N(C)CC(=O)N[C@@H](CCc3ccc(C(F)(F)F)c(Cl)c3)C(=O)N2C1 [PP1376] | – | – | – | 3.5 | – | 0.037 | B (a compound having 3 or more and less than 10 is denoted as B) | B (a compound having 3 or more and less than 10 is denoted as B) | – | –
8 | CCO[C@@H]1C[C@H]2C(=O)NC3(CC(C)(C)C3)C(=O)N(C)[C@@H](C3CCCC3)C(=O)N(C)[C@H](C(=O)N(CC)CC)CC(=O)N(C)[C@@H](COC)C(=O)N[C@@H]([C@@H](C)CC)C(=O)N(C)CC(=O)N(C)[C@H]3C/C=C\CCN(C3=O)[C@@H](Cc3ccc(C)cc3)C(=O)N(C)CC(=O)N[C@@H](CCc3cc(F)c(C(F)(F)F)c(F)c3)C(=O)N2C1 [PP2403] | – | A (a compound having 10 or more and less than 20 is denoted as A) | A (a compound having 10 or more and less than 20 is denoted as A) | 7.2 | 0.22 | – | – | – | – | –
9 | CC[C@H](C)[C@@H]1NC(=O)[C@H](COC)N(C)C(=O)C[C@@H](C(=O)N(C)C)N(C)C(=O)[C@H](C2CCCC2)N(C)C(=O)C2(CC(C)(C)C2)NC(=O)[C@@H]2C[C@@H](OC3CCCC3)CN2C(=O)[C@H](CCc2ccc(Cl)c(Cl)c2)NC(=O)CN(C)C(=O)[C@H](Cc2ccc(C)cc2)N2CC/C=C\C[C@@H](C2=O)N(C)C(=O)CN(C2CC2)C1=O [PP2628] | 0.9 | – | – | 67.9 | – | – | – | – | A (a compound having 10 or more and less than 20 is denoted as A) | A (a compound having 10 or more and less than 20 is denoted as A)
10 | CCC[C@H]1C(=O)N[C@@H](CC(C)C)C(=O)N(CC)CC(=O)N(C)[C@H]2C/C=C\CCN(C2=O)[C@@H](Cc2ccc(C)cc2)C(=O)N(C)CC(=O)N[C@@H](CCc2cc(F)c(C(F)(F)F)c(F)c2)C(=O)N2C[C@H](OCC)C[C@H]2C(=O)NC2(CCC2)C(=O)N(C)[C@@H](C2CCCC2)C(=O)N(C)[C@H](C(=O)N(C)C)CC(=O)N1C [PP2539] | 4.3 | – | – | 330 | – | – | – | – | A (a compound having 10 or more and less than 20 is denoted as A) | B (a compound having 3 or more and less than 10 is denoted as B)
11 | CC[C@H](C)[C@@H]1NC(=O)[C@H](CC(C)C)N(C)C(=O)C[C@@H](C(=O)N(C)CC)N(C)C(=O)[C@H](C2CCCC2)N(C)C(=O)C2(CC(C)(C)C2)NC(=O)[C@@H]2C[C@H](C)CN2C(=O)[C@H](CCc2cc(F)c(C(F)(F)F)c(F)c2)NC(=O)CN(C)C(=O)[C@H](Cc2ccc(C)cc2)N2CC/C=C\C[C@@H](C2=O)N(C)C(=O)[C@@H]2CCCN2C1=O [PP2411] | – | A (a compound having 10 or more and less than 20 is denoted as A) | A (a compound having 10 or more and less than 20 is denoted as A) | 91.4 | 1 | – | – | – | – | –
